Where two headings read alike, the source gives them in different places.
Legend:
mouse CB1R = target: T1, mouse CB1R (Mus musculus, UniProt P47746); test: [35S]GTPγS binding assay in mouse cerebellum membranes; type: biochemical
T1 construct: membranes (10 μg protein) from either ICR mouse cerebellum mice; from tissue; host or cells: cerebellum membranes of ICR mice

hCB1R [1] = target: T2, hCB1R (Homo sapiens, UniProt P21554); test: Calcium mobilization assay, antagonist mode against CP55,940; type: cell-based; parameters: expressed in transfected cells; host or cells: CHO-RD-HGA16 cells (parental line from Molecular Devices)
hCB1R [2] = target: T2, hCB1R; test: [35S]GTPγS binding assay in HEK cells stably expressing human CB1R; type: biochemical; parameters: expressed in transfected cells; host or cells: HEK (HEK293) cells, membranes; conditions: [CP] = 100 nM, mean (95% confidence interval), read-out: hCB1R [35S]GTPγS binding assay IC50
[3] = Tables 4-6, CP55,940 concentration not stated, mean (95% confidence interval), read-out: mCB1R [35S]GTPγS binding assay IC50
[4] = CHO cells expressing human CB1R, against CP55,940 (100 nM), mean ± SEM, read-out: hCB1R Calcium assay IC50

T1 sequence (P47746 whole entry): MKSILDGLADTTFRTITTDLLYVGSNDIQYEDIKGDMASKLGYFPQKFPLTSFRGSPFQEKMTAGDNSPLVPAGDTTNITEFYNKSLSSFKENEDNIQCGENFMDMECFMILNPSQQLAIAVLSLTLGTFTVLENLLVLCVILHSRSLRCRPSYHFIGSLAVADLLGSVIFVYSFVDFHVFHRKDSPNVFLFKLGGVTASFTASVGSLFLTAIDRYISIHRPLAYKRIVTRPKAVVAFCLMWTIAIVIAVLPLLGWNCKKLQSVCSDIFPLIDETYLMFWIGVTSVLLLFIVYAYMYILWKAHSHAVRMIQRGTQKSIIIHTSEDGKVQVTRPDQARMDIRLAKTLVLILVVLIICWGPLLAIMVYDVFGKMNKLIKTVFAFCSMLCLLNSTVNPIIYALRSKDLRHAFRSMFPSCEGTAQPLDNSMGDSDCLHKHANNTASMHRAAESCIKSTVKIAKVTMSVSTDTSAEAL
T2 sequence (P21554 whole entry): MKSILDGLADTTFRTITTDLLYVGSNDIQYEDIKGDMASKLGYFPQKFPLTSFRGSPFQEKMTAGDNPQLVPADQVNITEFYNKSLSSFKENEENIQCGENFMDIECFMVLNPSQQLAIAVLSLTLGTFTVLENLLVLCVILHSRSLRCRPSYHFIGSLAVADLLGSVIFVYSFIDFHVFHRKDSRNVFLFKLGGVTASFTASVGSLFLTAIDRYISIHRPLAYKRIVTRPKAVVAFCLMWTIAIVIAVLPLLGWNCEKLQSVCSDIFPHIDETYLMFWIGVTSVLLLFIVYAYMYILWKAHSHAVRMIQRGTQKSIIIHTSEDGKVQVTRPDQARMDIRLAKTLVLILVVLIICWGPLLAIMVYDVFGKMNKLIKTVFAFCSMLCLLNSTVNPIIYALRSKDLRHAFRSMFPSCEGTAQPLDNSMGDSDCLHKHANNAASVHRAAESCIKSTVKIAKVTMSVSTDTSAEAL

IC50 (hCB1R [1]; [4]) [µM]	Molecule	IC50 (hCB1R [1]) [µM]	also measured
1.22 ± 0.188	O=C(Nc1ccc(Cl)cc1)N[C@@H]1C[C@H]1c1ccccc1 (racemic) [Compound 15, trans-1-(4-Chlorophenyl)-3-(2-phenylcyclopropyl)urea]	–	IC50 (hCB1R [2]): > 10 µM
> 10	O=C(Nc1ccc(Cl)cc1)N[C@@H]1C[C@@H]1c1ccccc1 (relative stereo) [Compound 16, cis-1-(4-Chlorophenyl)-3-(2-phenylcyclopropyl)urea]	–	IC50 (hCB1R [2]): > 10 µM
2.61 ± 0.548	O=C(NC[C@@H]1C[C@H]1c1ccccc1)Nc1ccc(Cl)cc1 (relative stereo) [Compound 43, trans-1-(4-Chlorophenyl)-3-[(2-phenylcyclopropyl)methyl]urea]	–	–
3.7 ± 0.481	O=C(NCCCc1ccccc1)Nc1ccc(Cl)cc1 [Compound 37, 3-(4-Chlorophenyl)-1-(3-phenylpropyl)urea]	–	–
1.58 ± 0.328	O=C(NCC(F)(F)c1ccccc1)Nc1ccc(Cl)cc1 [Compound 39, 3-(4-Chlorophenyl)-1-(2,2-difluoro-2-phenylethyl)urea]	–	–
5.16 ± 1.15	O=C(NCC1(c2ccccc2)CC1)Nc1ccc(Cl)cc1 [Compound 41, 1-(4-Chlorophenyl)-3-[(1-phenylcyclopropyl)methyl]urea]	–	–
–	O=C(NCCc1ccccc1)Nc1ccc(Cl)cc1 [Compound 44, 3-(4-Chlorophenyl)-1-(2-phenylethyl)urea]	0.193 ± 0.035	–
–	CC(C)(C)c1ccc(CCNC(=O)Nc2ccc(Cl)cc2)cc1 [Compound 45, 1-[2-(4-tert-Butylphenyl)ethyl]-3-(4-chlorophenyl)urea]	0.573 ± 0.105	–
–	O=C(NCCc1ccc(-c2ccccc2)cc1)Nc1ccc(Cl)cc1 [Compound 46, 3-(4-Chlorophenyl)-1-[2-(4-phenylphenyl)ethyl]urea]	0.897 ± 0.167	–
–	O=C(NCCc1ccc([N+](=O)[O-])cc1)Nc1ccc(Cl)cc1 [Compound 48, 3-(4-Chlorophenyl)-1-[2-(4-nitrophenyl)ethyl]urea]	0.087 ± 0.012	IC50 (mouse CB1R; [3]): 0.78 µM
–	COc1cc(CCNC(=O)Nc2ccc(Cl)cc2)ccc1O [Compound 49, 3-(4-Chlorophenyl)-1-[2-(4-hydroxy-3-methoxyphenyl)ethyl]urea]	> 10	–
–	CN(C)c1cccc(CCNC(=O)Nc2ccc(Cl)cc2)c1 [Compound 50, 3-(4-Chlorophenyl)-1-{2-[3-(dimethylamino)phenyl]ethyl}urea]	1.68 ± 0.284	IC50 (mouse CB1R): 0.592 µM
–	CN(C)c1ccc(CCNC(=O)Nc2ccc(Cl)cc2)cc1 [Compound 51, 3-(4-Chlorophenyl)-1-{2-[4-(dimethylamino)phenyl]ethyl}urea]	0.323 ± 0.088	IC50 (mouse CB1R): 1.59 µM
–	CS(=O)(=O)c1ccc(CCNC(=O)Nc2ccc(Cl)cc2)cc1 [Compound 52, 3-(4-Chlorophenyl)-1-[2-(4-methanesulfonylphenyl)ethyl]urea]	> 10	–
–	COc1ccccc1CCNC(=O)Nc1ccc(Cl)cc1 [Compound 53, 3-(4-Chlorophenyl)-1-[2-(2-methoxyphenyl)ethyl]urea]	1.62 ± 0.248	–
–	COc1cccc(CCNC(=O)Nc2ccc(Cl)cc2)c1 [Compound 54, 3-(4-Chlorophenyl)-1-[2-(3-methoxyphenyl)ethyl]urea]	0.485 ± 0.093	–
–	COc1ccc(CCNC(=O)Nc2ccc(Cl)cc2)cc1OC [Compound 56, 3-(4-Chlorophenyl)-1-[2-(3,4-dimethoxyphenyl)ethyl]urea]	1.86 ± 0.319	–
–	O=C(NCCc1ccc(O)cc1)Nc1ccc(Cl)cc1 [Compound 58, 3-(4-Chlorophenyl)1-[2-(4-hydroxyphenyl)ethyl]urea]	> 10	–
–	Cc1ccc(CCNC(=O)Nc2ccc(Cl)cc2)cc1 [Compound 59, 3-(4-Chlorophenyl)1-[2-(4-methylphenyl)ethyl]urea]	0.137 ± 0.021	–
–	Cc1cccc(CCNC(=O)Nc2ccc(Cl)cc2)c1 [Compound 60, 3-(4-Chlorophenyl)1-[2-(3-methylphenyl)ethyl]urea]	0.045 ± 0.009	IC50 (mouse CB1R; [3]): 4.18 µM
–	O=C(NCCc1ccccc1F)Nc1ccc(Cl)cc1 [Compound 61, 3-(4-Chlorophenyl)1-[2-(2-fluorophenyl)ethyl]urea]	0.174 ± 0.027	–
–	O=C(NCCc1cccc(F)c1)Nc1ccc(Cl)cc1 [Compound 62, 3-(4-Chlorophenyl)-1-[2-(3-fluorophenyl)ethyl]urea]	0.053 ± 0.009	IC50 (mouse CB1R; [3]): 1.52 µM

IC50 (hCB1R [1]; [4]) [µM]	Molecule	IC50 (hCB1R [1]) [µM]	also measured
–	O=C(NCCc1ccc(F)cc1)Nc1ccc(Cl)cc1 [Compound 63, 3-(4-Chlorophenyl)1-[2-(4-fluorophenyl)ethyl]urea]	0.108 ± 0.019	–
–	O=C(NCCc1ccc(F)c(F)c1)Nc1ccc(Cl)cc1 [Compound 64, 3-(4-Chlorophenyl)-1-[2-(3,4-difluorophenyl)ethyl]urea]	0.047 ± 0.005	–
–	O=C(NCCc1c(F)cc(F)cc1F)Nc1ccc(Cl)cc1 [Compound 65, 3-(4-Chlorophenyl)-1-[2-(2,4,6-trifluorophenyl)ethyl]urea]	0.081 ± 0.009	–
–	O=C(NCCc1c(F)c(F)c(F)c(F)c1F)Nc1ccc(Cl)cc1 [Compound 66, 3-(4-Chlorophenyl)1-[2-(2,3,4,5,6-pentafluorophenyl)ethyl]urea]	0.034 ± 0.007	–
–	O=C(NCCc1ccccc1Cl)Nc1ccc(Cl)cc1 [Compound 67, 3-(4-Chlorophenyl)1-[2-(2-chlorophenyl)ethyl]urea]	0.237 ± 0.035	–
–	O=C(NCCc1ccc(Cl)cc1Cl)Nc1ccc(Cl)cc1 [Compound 69, 3-(4-Chlorophenyl)1-[2-(2,4-dichlorophenyl)ethyl]urea]	0.174 ± 0.034	–
–	O=C(NCCc1c(F)cccc1Cl)Nc1ccc(Cl)cc1 [Compound 70, 3-(4-Chlorophenyl)1-[2-(2-chloro-6-fluorophenyl)ethyl]urea]	0.408 ± 0.066	–
–	O=C(NCCc1ccc(Br)cc1)Nc1ccc(Cl)cc1 [Compound 71, 3-(4-Chlorophenyl)1-[2-(4-bromophenyl)ethyl]urea]	0.151 ± 0.02	–
–	N#Cc1ccc(CCNC(=O)Nc2ccc(Cl)cc2)cc1 [Compound 72, 3-(4-Chlorophenyl)1-[2-(4-cyanophenyl)ethyl]urea]	0.443 ± 0.053	–
–	O=C(NCCc1ccccc1C(F)(F)F)Nc1ccc(Cl)cc1 [Compound 73, 3-(4-Chlorophenyl)-1-{2-[2-(trifluoromethyl)phenyl]ethyl}urea]	0.143 ± 0.034	–
–	O=C(NCCc1cccc(C(F)(F)F)c1)Nc1ccc(Cl)cc1 [Compound 74, 3-(4-Chlorophenyl)-1-{2-[3-(trifluoromethyl)phenyl]ethyl}urea]	0.032 ± 0.007	IC50 (mouse CB1R; [3]): 0.766 µM
–	O=C(NCCc1ccc(C(F)(F)F)cc1)Nc1ccc(Cl)cc1 [Compound 75, 3-(4-Chlorophenyl)-1-{2-[4-(trifluoromethyl)phenyl]ethyl}urea]	0.194 ± 0.038	–
> 10	O=C(NCCc1ccncc1)Nc1ccc(Cl)cc1 [Compound 76, 3-(4-Chlorophenyl)-1-[2-(pyridin-4-yl)ethyl]urea]	–	–
> 10	O=C(NCCc1cccnc1)Nc1ccc(Cl)cc1 [Compound 77, 3-(4-Chlorophenyl)-1-[2-(pyridin-3-yl)ethyl]urea]	–	–
3.63 ± 0.687	O=C(NCCc1ccccn1)Nc1ccc(Cl)cc1 [Compound 78, 3-(4-Chlorophenyl)-1-[2-(pyridin-2-yl)ethyl]urea]	–	–
0.255 ± 0.04	Cc1ccc(CCNC(=O)Nc2ccc(Cl)cc2)o1 [Compound 79, 1-(4-Chlorophenyl)-3-[2-(5-methylfuran-2-yl)ethyl]urea]	–	IC50 (mouse CB1R; [3]): 2.77 µM
> 10	CN1CCN(CCNC(=O)Nc2ccc(Cl)cc2)CC1 [Compound 80, 3-(4-Chlorophenyl)-1-[2-(4-methylpiperazin-1-yl)ethyl]urea]	–	–
> 10	O=C(NCCN1CCCCC1)Nc1ccc(Cl)cc1 [Compound 81, 3-(4-Chlorophenyl)-1-[2-(piperidin-1-yl)ethyl]urea]	–	–
> 10	O=C(NCCN1CCOCC1)Nc1ccc(Cl)cc1 [Compound 82, 3-(4-Chlorophenyl)-1-[2-(morpholin-4-yl)ethyl]urea]	–	–
> 10	O=C(NCCN1CCCC1)Nc1ccc(Cl)cc1 [Compound 83, 1-(4-Chlorophenyl)-3-[2-(pyrrolidin-1-yl)ethyl]urea]	–	–
1.83 ± 0.362	CC(=O)NCCNC(=O)Nc1ccc(Cl)cc1 [Compound 84, N-(2-{[(4-Chlorophenyl)carbamoyl]amino}ethyl)acetamide]	–	–

Molecule	IC50 (hCB1R [1]; [4]) [µM]	IC50 (hCB1R [1]) [µM]	also measured
3-(4-Chlorophenyl)-1-[2-(3-methoxyphenyl)ethyl]urea [Compound 55]	0.228 ± 0.045	–	IC50 (mouse CB1R; [3]): 3.72 µM
COc1ccc(-c2cccc(N3CCCC3)n2)cc1NC(=O)Nc1ccc(Cl)cc1 [Compound 6, 3-(4-Chlorophenyl)-1-{2-methoxy-5-[6-(pyrrolidin-1-yl)pyridin-2-yl]phenyl}urea]	1.27	–	IC50 (hCB1R [2]): > 10 µM
O=C(Nc1ccc(Cl)cc1)Nc1csc(-c2ccccc2)c1 [Compound 13, 1-(4-Chlorophenyl)-3-(5-phenylthiophen-3-yl)urea]	0.06 ± 0.008	–	IC50 (hCB1R [2]): 0.888 µM
O=C(Nc1ccc(Cl)cc1)Nc1ccc(-c2cccc(F)c2)s1 [Compound 19, 1-(4-Chlorophenyl)-3-[5-(3-fluorophenyl)thiophen-2-yl]urea]	0.039 ± 0.006	–	IC50 (hCB1R [2]): 0.425 µM
O=C(Nc1ccc(Cl)cc1)Nc1ccc(-c2cccc(Cl)c2)s1 [Compound 22, 1-(4-Chlorophenyl)-3-[5-(3-chlorophenyl)thiophen-2-yl]urea]	0.04 ± 0.007	–	IC50 (hCB1R [2]): 0.553 µM
O=C(Nc1ccc(Cl)cc1)Nc1ccc(-c2ccc(Cl)cc2)s1 [Compound 23, 1-(4-Chlorophenyl)-3-[5-(4-chlorophenyl)thiophen-2-yl]urea]	0.043 ± 0.007	–	IC50 (hCB1R [2]): 0.774 µM
O=C(Nc1ccc(Cl)cc1)Nc1ccc(-c2ccc(Cl)c(Cl)c2)s1 [Compound 24, 1-(4-Chlorophenyl)-3-[5-(3,4-dichlorophenyl)thiophen-2-yl]urea]	0.111 ± 0.014	–	IC50 (hCB1R [2]): 1.72 µM

From US20220332695A1, “UREA DERIVATIVES AS CB1 ALLOSTERIC MODULATORS” (RTI INTERNATIONAL, priority 2019, published 2022)
